Laboratory results taken from article PMC4277633 (Iranian Journal of Pharmaceutical Research : IJPR, 2015).
≈ marks a conversion by molar mass, not a printed value. Structures can show the parent of a compound that is named as a salt. *1 amine or outer side, *2 acyl side, *3 side chain or, on linkers, in order; H or OH if unused. Where a SMILES comes first, the peptide text is derived from it. Bridges are numbered along the chain shown (N, C = ends). Roman numbers before positions name the chains, in order. [ ]: non-standard residue; d: D form. Actinocin(9to1) = Cc1c2oc3c(C)ccc(C(=O)[*:1])c3nc-2c(C(=O)[*:2])c(N)c1=O; NMeV = CN[C@H](C(=O)O)C(C)C; Sar = CNCC(=O)O

What was measured:
[1] = test system: Bacillus Calmette–Guérin (BCG) (1173P2); assay: organism not typed; format: cell-based, Mycobacterium bovis
[2] = test system: Human Umbilical Vein Endothelial (HUVEC) cell line; assay: cells; details: 24 h, read-out: MTT IC 50
M. tuberculosis = details: cited from earlier work; for activity against mychobacterium tuberculosis: both active and persistent form
[3] = test system: Human Umbilical Vein Endothelial (HUVEC) cell line
[4] = test system: pantothenate synthetase (PanC, Rv3602c); details: HTS hits; cited from earlier work
[5] = 48 h, read-out: MIC 48 h, BCG, alamar blue, colour read after 48 h reincubation
[6] = 72 h, read-out: BCG MIC, Table 4, same values as 72 h reading
[7] = 72 h, read-out: MIC 72 h, BCG, alamar blue, colour read after 72 h reincubation
[8] = 72 h, read-out: MIC, Mycobacterium bovis BCG, corresponds to 72 h values

SMILES	MIC [1, 5] [µg/mL]	MIC [1, 6] [µg/mL]	MIC [1, 7] [µg/mL]	IC50 [2] [µg/mL]	MIC [1, 8] [µg/mL]	further results
Nc1ccccc1 [Compound 1a]	500 (≈ 5370 µM)	250 (≈ 2680 µM)	250 (≈ 2680 µM)	1040 (≈ 11100 µM)		
N#Cc1ccccc1N [Compound 1b]	500 (≈ 4230 µM)	93.8 (≈ 794 µM)	93.8 (≈ 794 µM)	908 (≈ 7680 µM)		
c1ccc2[nH]ccc2c1 [Compound 1c, indole]	125 (≈ 1070 µM)	46.9 (≈ 400 µM)	46.9 (≈ 400 µM)	573 (≈ 4890 µM)	46.9 (≈ 400 µM)	tuberculostatic effect (M. tuberculosis): comparable with Isoniazid; selectivity indices (SI) [3]: ≥ 10
c1ccc2c(c1)CCN2 [Compound 1d, indoline]	31.2 (≈ 262 µM)	7.81 (≈ 65.5 µM)	7.81 (≈ 65.5 µM)	800 (≈ 6710 µM)	7.81 (≈ 65.5 µM)	
Nc1ccc2c(c1)Cc1ccccc1-2 [Compound 1e, 2-fluorenamine]	31.2 (≈ 172 µM)	11.7 (≈ 64.7 µM)	11.7 (≈ 64.7 µM)	726 (≈ 4010 µM)	11.7 (≈ 64.7 µM)	selectivity indices (SI) [3]: ≥ 10
Nc1cccc2c1C(=O)c1ccccc1C2=O [Compound 1f, 1-aminoanthraquinone]	188 (≈ 840 µM)	7.81 (≈ 35 µM)	7.81 (≈ 35 µM)	14.2 (≈ 63.5 µM)	7.8 (≈ 34.9 µM)	MIC ([1]; Mycobacterium bovis BCG, corresponds to 72 h values): 7.81 µg/mL (≈ 35 µM); cytotoxicity in HUVEC cell line [3]: not in acceptable range
Nc1ccc(Nc2ccccc2)c2c1C(=O)c1ccccc1C2=O [Compound 1g, 1-amino-4-anilino-9,10-anthraquinone]	7.81 (≈ 24.8 µM)	< 3.9	< 3.9	344 (≈ 1100 µM)	< 3.9	selectivity indices (SI) [3]: ≥ 10
O=C1c2ccccc2C(=O)N1CCO [Compound 1h, N-(2-Hydroxyethyl)-phthalimide]	500 (≈ 2620 µM)	500 (≈ 2620 µM)	500 (≈ 2620 µM)	842 (≈ 4400 µM)		antimycobacterial activity ([1]; BCG): did not show good activity
NCCCn1ccnc1 [Compound 1i]	250 (≈ 2000 µM)	125 (≈ 999 µM)	125 (≈ 999 µM)	441 (≈ 3520 µM)		
O=C(O)/C=C/c1cnc[nH]1 [Compound 1j]	500 (≈ 3620 µM)	500 (≈ 3620 µM)	500 (≈ 3620 µM)	1190 (≈ 8590 µM)		antimycobacterial activity ([1]; BCG): no activity
Cc1cc(C(=O)O)no1 [Compound 2a, 5-methylisoxazole-3-carboxylic acid]	500 (≈ 3930 µM)	125 (≈ 983 µM)	125 (≈ 983 µM)	1090 (≈ 8600 µM)		antimycobacterial activity ([1]; BCG): no antimycobacterial activity
O=C(O)c1cc2ccccc2oc1=O [Compound 2b, coumarin-3-carboxylic acid]	125 (≈ 657 µM)	31.2 (≈ 164 µM)	31.2 (≈ 164 µM)	924 (≈ 4860 µM)	31.2 (≈ 164 µM)	selectivity indices (SI) [3]: ≥ 10
C[C@]1(COc2ccc(N3CCC(Oc4ccc(OC(F)(F)F)cc4)CC3)cc2)Cn2cc([N+](=O)[O-])nc2O1 [OPC-676833]						activity against mychobacterium tuberculosis (M. tuberculosis): good in-vitro and in-vivo activity
O=[N+]([O-])c1cn2c(n1)OC[C@@H](OCc1ccc(OC(F)(F)F)cc1)C2 [PA-8242]						activity against mychobacterium tuberculosis (M. tuberculosis): good in-vitro and in-vivo activity
Cc1c2oc3c(C)ccc(C(=O)N[C@@H]4C(=O)N[C@H](C(C)C)C(=O)N5CCC[C@H]5C(=O)N(C)CC(=O)N(C)[C@@H](C(C)C)C(=O)O[C@@H]4C)c3nc-2c(C(=O)N[C@@H]2C(=O)N[C@H](C(C)C)C(=O)N3CCC[C@H]3C(=O)N(C)CC(=O)N(C)[C@@H](C(C)C)C(=O)O[C@@H]2C)c(N)c1=O [actinomycin D] (I: T[dV]P[Sar][NMeV] / II: T[dV]P[Sar][NMeV]; ester I:1-I:C, II:1-II:C; linker I:N-II:N via Actinocin(9to1))						activity against pantothenate synthetase [4]: poor activity
COc1cccc2c1C(=O)c1c(O)c3c(c(O)c1C2=O)C[C@@](O)(C(=O)CO)C[C@@H]3O[C@H]1C[C@H](N)[C@H](O)[C@H](C)O1 [doxorubicin, reference compound]				3.1 (≈ 5.7 µM)		
CC[C@@H](CO)NCCN[C@@H](CC)CO [ethambutol, Ethambutol, reference compound]						MIC ([1]; Bacillus, BCG, read-out: MIC of ethambutol, positive control, table footnote, reading time not given): 3.12 µg/mL
CCN(CC)CCOC(=O)C(Cc1cccc2ccccc12)CC1CCCO1 (stereo not shown) [nafronyl oxalate]						activity against pantothenate synthetase [4]: poor activity
